Assay results: article PMC12679585, “Design, synthesis, and characterization of novel 5-ethylsulfonyl-indazole-3-carboxamides as dual VEGFR-2 and EGFR inhibitors: apoptotic antiproliferative and immunomodulatory evaluations” (RSC Advances, 2025)

Experiments:
HCT-116 and MCF-7 = assay: Antiproliferative assay, average over the two cell lines; format: cell-based; conditions: Homo sapiens; average of HCT-116 and MCF-7; read-out: Average IC50 (GI50)
Excerpt: (§1) The MTT assay[53,54] was employed to evaluate the antiproliferative efficacy of new compounds 8a–l against two human cancer cell lines: MCF-7 (breast) and HCT-116 (colorectal carcinoma). Erlotinib was employed as the benchmark. Check Appendix A for additional experimental information.
(§2) The MTT assay[53,54] was used to evaluate the antiproliferative properties of novel compounds 8a–l against two human cancer cell lines: MCF-7 (breast cancer) and HCT-116 (colorectal carcinoma). Erlotinib was utilized as the reference. […] The provided values represent the means of three experiments ± standard deviation (SD).

HCT-116 = assay: Antiproliferative assay (MTT); format: cell-based; conditions: Homo sapiens, HCT-116 colorectal, mean of three experiments ± SD
Excerpt: as §1
as §2, with “(SD). […]” for “(SD).”
(§3) of Ham's F-12 medium/ Dulbecco's modified Eagle's medium (DMEM) (1:1) supplemented with 10% foetal calf serum (GIBCO, UK), 2 mM glutamine, insulin (10 μg/mL), hydrocortisone (500 ng/mL) and epidermal growth factor (20 ng/mL). Trypsin ethylenediamine tetra acetic acid (EDTA) was used to passage the cells after every 2-3 days. 96-well flat-bottomed cell culture plates were used to seed the cells at a density of 10^4 cells mL-1. The medium was aspirated from all the wells of culture plates after 24 h followed by the addition of synthesized compounds (in 200 μL medium to yield a final concentration of 0.1% (v/v) dimethyl sulfoxide) into individual wells of the plates.
(§4) Four wells were designated to a single compound. The plates were allowed to incubate at 37°C for 96 h. Afterwards, the medium was aspirated and 3-[4,5-dimethylthiazol-2-yl]-2,5-diphenyltetrazolium bromide (MTT) (0.4 mg/mL) in medium was added to each well and subsequently incubated for 3 h. The medium was aspirated and 150 μL dimethyl sulfoxide (DMSO) was added to each well. The plates were vortexed followed by the measurement of absorbance at 540 nm on a microplate reader. […]
(§5) All cell lines […]
(§6) were obtained from ATCC (American Type Cell Culture). […]
(§7) μM), benzamidine HCl (16 μg/mL), NaCl (10 mM),leupeptin (10 μg/mL) and pepstatin (10 μg/mL) at 0°C for 20 min at pH 7.4, followed by centrifugation for 20 min. To eliminate the nonspecifically bound material, a Ni-NTA super flow packed column was (1 picture or pasted object on this page, not shown here)

MCF-7 = assay: Antiproliferative assay (MTT); format: cell-based; conditions: Homo sapiens, MCF7, MCF-7 breast, mean of three experiments ± SD
Excerpt: as §1
as §2, with “(SD). […]” for “(SD).”
as §3, §4, §5, §6, §7

[1] = Cell viability assay (MTT) on normal mammary epithelial cells; format: cell-based; conditions: human, MCF-10A normal mammary gland epithelial cells, four days
Experimental: This test assesses the safety of new compounds 8a–l on normal cell lines. The efficacy of 8a–l was tested on the normal human mammary gland epithelial cell line MCF-10A. MCF-10A cells were incubated with 50 µM of each tested compound for four days. Cell viability was assessed using the MTT assay.[11,48] Appendix A has extra experimental details.
This assay evaluates the impact of novel compounds 8a–l on normal cell lines to determine their safety, an essential consideration in drug discovery. The efficacy of the examined compounds was evaluated utilizing the normal human mammary gland epithelial cell line MCF-10A. […]
4.2. Biological evaluation
4.2.1 Cell Viability assay (MTT assay)
as §3, with “MTT assay was performed to investigate the effect of the synthesized compounds on mammary epithelial cells (MCF-10A). The cells were propagated in medium consisting of Ham's” for “of Ham's”
as §4

EGFR = EGFR (Homo sapiens, UniProt P00533); parameters: 645–1186; His6 (N); made in house; host or cells: Sf-9 insect cells (baculovirus; vectors pBlueBacHis2B and pFASTBacHTc); method as in PMID 35667253; conditions: cited from earlier work
wild-type EGFR = tested on: wild-type EGFR; parameters: method as in PMID 26275028; conditions: cited from earlier work
VEGFR-2 kinase = biological target: VEGFR-2 kinase; parameters: method as in PMID 24456902; conditions: cited from earlier work
IL-6 = IL-6 level by qRT-PCR in HCT-116 cells; conditions: HCT-116 cells, 24 hours, at IC50 against HCT-116 (8g 24 nM, 8h 23 nM), qRT-PCR
Experimental: (§8) The reference molecule was dexamethasone, a drug that uniformly regulates the immune system.
TNF-α and IL6 a determination
(§9) determined using of q RT-PCR technique. By using q RTPCR (reference), the amount
(§10) treated HCT-116 cells was measured (at the IC50 concentrations). Total RNA was
(§11) accordance with the manufacturer's instructions (RNeasy mini kit, Qiagen, Germany).
(§12) Following RNA extraction, the Revert Aid First Strand cDNA Synthesis kit (Thermo
(§13) Scientific, USA) was used to create cDNA. The Rotor-Gene Q real-time PCR thermal
(§14) cycler was used to amplify target cDNA for apoptosis markers and GAPDH [as a
(§15) normalization (housekeeping) gene] using one step RT-PCR SYBR® Green kit Master
(§16) Mix (Bio-Rad Laboratories, USA). Two microliters of cDNA were combined with one
(§17) microliter of forward primer, one microliter of reverse primer, ten microliters of master
(§18) mixture, and twenty microliters of nuclease-free water to complete the reaction volume.
(§19) Every experiment was carried out three times.
(§20) Quantitative Real Time Reverse-Transcriptase PCR (qRT-PCR) primer sequences
TNF-α : R 5'- [sequence] -3'.
IL6 : R 5'- [sequence] -3
GAPDH : R 5’- [sequence]-3’

TNF-α = TNF-α level by qRT-PCR in HCT-116 cells; conditions: HCT-116 cells, 24 hours, at IC50 against HCT-116 (8g 24 nM, 8h 23 nM), qRT-PCR
Experimental: as §8
TNF-α and IL6 a determination
as §9, §10, §11, §12, §13, §14, §15, §16, §17, §18, §19, §20
TNF-α : R 5'- [sequence] -3'.
IL6 : R 5'- [sequence] -3
GAPDH : R 5’- [sequence]-3’

Caspase-9 = Caspase-9 activation assay in HCT-116 cells
Caspase-3 = Caspase-3 activation assay in HCT-116 cells; format: cell-based, human
Experimental: Appendix A gives more details.
Additionally, activating caspases is essential for both initiating and terminating the apoptotic process.[64] Caspase-3 is an essential enzyme that cleaves several proteins within cells, leading to apoptotic cell death.[65] […]
be read immediately after the Stop Solution is added or within one hour if the microwell strips are stored at 2 - 8°C in the dark. Read the absorbance of each microwell on a spectrophotometer using 450 nm as the primary wavelength.
4.2.5. Caspase-3 activation assay
Allow all reagents to reach room temperature before use. Gently mix all liquid reagents prior to use. Determine the number of 8-well strips needed for the assay. Insert these in the frame(s) for current use. Add 100 μl of the Standard Diluent Buffer to the zero standard wells. Well(s) reserved for chromogen blank should be left empty. Add 100 μl of standards and controls or diluted samples to the appropriate microtiter wells. The sample dilution chosen should be optimized for each experimental system. Tap gently on side of plate to mix. Cover wells with plate cover and incubate for 2 hours at room temperature. Thoroughly aspirate or decant solution from wells and discard the liquid, Wash wells 4 times. Pipette 100 μl of Caspase-3 (Active) Detection Antibody solution into each well except the chromogen blank(s). Tap gently on the side of the plate to mix. Cover plate with plate cover and incubate for 1 hour at room temperature.
Thoroughly aspirate or decant solution from wells and discard the liquid, Wash wells 4 times. Add 100 μl Anti-Rabbit IgG HRP Working Solution to each well except the chromogen blank(s). Prepare the working dilution as described in Preparing IgG HRP.
Cover wells with the plate cover and incubate for 30 minutes at room temperature.
Thoroughly aspirate or decant solution from wells and discard the liquid. Wash wells 4 times. Add 100 μl of Stabilized Chromogen to each well. The liquid in the wells will […]
begin to turn blue. […] The
Tap side of plate gently to mix.
Use a curve fitting software to generate […]
for the dilution in step 3.
4.2.6. Caspase-8/9 activation assay
This lysate was diluted in […]

Chain of EGFR (P00533 669-1210): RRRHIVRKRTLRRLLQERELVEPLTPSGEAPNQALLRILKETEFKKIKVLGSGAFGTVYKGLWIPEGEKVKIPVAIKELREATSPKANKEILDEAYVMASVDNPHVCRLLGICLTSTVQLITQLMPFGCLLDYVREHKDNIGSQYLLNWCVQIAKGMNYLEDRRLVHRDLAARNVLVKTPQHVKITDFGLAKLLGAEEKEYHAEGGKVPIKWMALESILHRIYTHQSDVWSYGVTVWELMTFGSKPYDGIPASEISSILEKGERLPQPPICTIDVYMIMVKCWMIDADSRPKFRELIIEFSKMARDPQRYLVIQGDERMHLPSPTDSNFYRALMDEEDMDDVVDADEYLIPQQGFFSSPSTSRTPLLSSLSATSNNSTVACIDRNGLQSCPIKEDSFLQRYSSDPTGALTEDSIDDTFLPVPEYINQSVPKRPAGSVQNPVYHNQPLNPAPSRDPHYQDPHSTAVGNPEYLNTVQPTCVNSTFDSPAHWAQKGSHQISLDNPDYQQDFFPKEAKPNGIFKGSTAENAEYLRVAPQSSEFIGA

Structure (SMILES) | IC50 (HCT-116 and MCF-7) | IC50 (HCT-116) | IC50 (MCF-7) | viability at 4 days, 50 µM [1] | further results
CC(=O)Nc1ccc(/C(N)=N/OC(=O)c2ccc3cn[nH]c3c2)cc1 [Compound XIII] | – | – | – | – | IC50 (EGFR): 85 ± 5 nM
C=CC(=O)Nc1cccc(Oc2nc(Nc3n[nH]c4ccccc34)cc(N3CCN(C)CC3)n2)c1 [Compound XII] | – | – | – | – | IC50 (wild-type EGFR): 1700 nM
CN(c1ccc2cn(C)nc2c1)c1ccnc(Nc2ccc(OC(F)(F)F)cc2)n1 [Compound XIV] | – | – | – | – | IC50 (VEGFR-2 kinase): 12 nM
C[C@@H]1C[C@H]2[C@@H]3CCC4=CC(=O)C=C[C@]4(C)[C@@]3(F)[C@@H](O)C[C@]2(C)[C@@]1(O)C(=O)CO [Dexamethasone, reference compound] | – | – | – | – | IL-6 (% inhibition) (IL-6): 93%; IL-6 (% inhibition) (IL-6; listed as dexamethasone): 93.2%; TNF-α (% inhibition) (TNF-α): 83%; TNF-α (% inhibition) (TNF-α; listed as dexamethasone): 82.7%
C#Cc1cccc(Nc2ncnc3cc(OCCOC)c(OCCOC)cc23)c1 [Erlotinib, reference compound] | 35 nM | 30 ± 2 nM | 40 ± 3 nM | – | –
CN[C@@H]1C[C@H]2O[C@@](C)([C@@H]1OC)n1c3ccccc3c3c4c(c5c6ccccc6n2c5c31)C(=O)NC4 [Staurosporine, reference compound] | – | – | – | – | Caspase-9 Conc. (Caspase-9): 20 ± 1 ng/mL; Caspase-3 Conc. (Caspase-3): 465 ± 4 pg/mL

Second part, led by results:

IC50 (HCT-116 and MCF-7) | IC50 (HCT-116) | IC50 (MCF-7) | Structure (SMILES) | viability at 4 days, 50 µM [1] | further results
48 nM | 42 ± 4 nM | 54 ± 4 nM | CCCCCNC(=O)NNC(=O)c1n[nH]c2ccc(S(=O)(=O)CC)cc12 [Compound 8a, 2-(5-(Ethylsulfonyl)-1H-indazole-3-carbonyl)-N-pentylhydrazine-1-carboxamide] | 90% | –
37 nM | 33 ± 3 nM | 40 ± 3 nM | CCCCCCNC(=O)NNC(=O)c1n[nH]c2ccc(S(=O)(=O)CC)cc12 [Compound 8b, 2-(5-(Ethylsulfonyl)-1H-indazole-3-carbonyl)-N-hexylhydrazine-1-carboxamide] | 92% | –
32 nM | 30 ± 2 nM | 34 ± 2 nM | CCCCCCCNC(=O)NNC(=O)c1n[nH]c2ccc(S(=O)(=O)CC)cc12 [Compound 8c, 2-(5-(Ethylsulfonyl)-1H-indazole-3-carbonyl)-N-heptylhydrazine-1-carboxamide] | 91% | –
30 nM | 28 ± 1 nM | 31 ± 2 nM | CCCCCCCCNC(=O)NNC(=O)c1n[nH]c2ccc(S(=O)(=O)CC)cc12 [Compound 8d, 2-(5-(Ethylsulfonyl)-1H-indazole-3-carbonyl)-N-octylhydrazine-1-carboxamide] | 90% | –
35 nM | 31 ± 3 nM | 39 ± 3 nM | CCS(=O)(=O)c1ccc2[nH]nc(C(=O)NNC(=O)NC3CCCCC3)c2c1 [Compound 8e, 2-(5-(Ethylsulfonyl)-1H-indazole-3-carbonyl)-N-(cyclohexyl)hydrazine-1-carboxamide] | 91% | –
45 nM | 39 ± 3 nM | 50 ± 4 nM | CCS(=O)(=O)c1ccc2[nH]nc(C(=O)NNC(=O)NC3CCC(C)CC3)c2c1 (centres unmarked) [Compound 8f, 2-(5-(Ethylsulfonyl)-1H-indazole-3-carbonyl)-N-(4-methylcyclohexyl)hydrazine-1-carboxamide] | 92% | –
40 nM | 36 ± 3 nM | 44 ± 4 nM | CCS(=O)(=O)c1ccc2[nH]nc(C(=O)NNC(=O)Nc3ccc(F)cc3)c2c1 [Compound 8i, 2-(5-(Ethylsulfonyl)-1H-indazole-3-carbonyl)-N-(4-fluorophenyl)hydrazine-1-carboxamide] | 91% | –
34 nM | 31 ± 2 nM | 36 ± 2 nM | CCS(=O)(=O)c1ccc2[nH]nc(C(=O)NNC(=O)NCc3ccccc3)c2c1 [Compound 8j, 2-(5-(Ethylsulfonyl)-1H-indazole-3-carbonyl)-N-(benzyl)hydrazine-1-carboxamide] | 90% | –
31 nM | 30 ± 2 nM | 32 ± 2 nM | CCS(=O)(=O)c1ccc2[nH]nc(C(=O)NNC(=O)NCc3ccc(OC)cc3)c2c1 [Compound 8k, 2-(5-(Ethylsulfonyl)-1H-indazole-3-carbonyl)-N-(4-methoxybenzyl)hydrazine-1-carboxamide] | 92% | –
42 nM | 37 ± 3 nM | 46 ± 4 nM | CCS(=O)(=O)c1ccc2[nH]nc(C(=O)NNC(=O)NCCc3ccccc3)c2c1 [Compound 8l, 2-(5-(Ethylsulfonyl)-1H-indazole-3-carbonyl)-N-phenethylhydrazine-1-carboxamide] | 91% | –
